In US20140037661A1, “Wheat Antigens and Peptides for Diagnosis of Wheat Induced Hypersensitivity” (PHADIA AB, priority 2011, published 2014):

Tested on: serum-IgA from CD patients
Experiment: IgA reactivity ELISA to synthetic GG1 peptides
Format: binding, human
Settings: 5 μg/ml coated; n=8 CD, 2 CD on gluten free diet, 3 healthy controls; FIG. 16
Procedure: ELISA plates were coated with 100 ul of 5 μg/ml of the 19 overlapping peptides, rGG1, alpha-gliadin peptide p56-75 and deamidated alpha gliadin peptide p56-75 (Q65E) and probed with serum-IgA from CD patients, CD patients on gluten free diet and healthy controls and detected using mouse anti-human IgA1/A2 and sheep anti-mouse IgG-HRP labelled antibody. Human serum albumin (HSA) was used as control (n=8 CD patients, 2 CD patients on gluten free diet and 3 healthy controls). […] Each of the synthetic GG1 peptides no.

QVMRQQCCQQLAQIPQQLQCA (listed as Triticum aestivum) [compound 13]
IgA reactivity of celiac disease patients' serum: specific IgA reactivity
